# Publication PMC10079954, “Rational design of phase separating peptides based on phase separating protein sequence of p53” (Scientific Reports, 2023)
# Tests used:
# [1] = tested on: p53 tetramer; assay: Recruitment (enrichment index) of p53 tetramer into designed peptide droplets; parameters: species or system human; details: no salt, pH 7.0
# From the text: (§1) We prepared p53 tetramer, dimer, and monomer mutants, as described previously[8],[37],[50]. For the p53 tetramer, a thermostable and cysteine-modified human p53 mutant (C124A, C135V, C141V, W146Y, C182S, V203A, R209P, C229Y, H233Y, Y234F, N235K, Y236F, T253V, N268D, C275A, C277A, and K292C) was used[50]. The dimer and monomer mutants of p53 corresponded to L344A and L344P of the tetramer sequence, respectively[8],[37]. These p53 mutants were expressed with a glutathione S-transferase (GST) tag in E. coli and purified after cleavage of the GST tag, as described previously[50],[51]. The oligomeric state of p53 mutants was confirmed using a gel filtration column (Superdex 200; GE Healthcare). p53 mutants were labeled with Atto488 (ATTO-TEC) or Alexa488 (Thermo Fisher) using maleimide chemistry and then purified using a heparin column (GE Healthcare). We prepared Alexa488-labeled FUS-MBP as described previously[37],[39].
# (§2) Recruitment evaluations were performed following the method described in our previous studies[37],[41]. Solutions containing 0.9–1.8 mM designed peptides, 0.1 µM Alexa488-labeled p53 mutants or Alexa488, 25 mM HEPES, 0.5 mM EDTA, and 1 mM DTT at pH 7.0 were used. The solutions were then incubated at 22 °C for five minutes. The aforementioned microscope was used with HILO illumination. To prevent photo-bleaching of the fluorescent samples, we used a laser power of 0.15 mW. The images were acquired at 22 °C. Using the ImageJ software, we calculated the EI values of the individual droplets as follows:2 EI=Idroplet/Isolution, where Idroplet and Isolution represent the average fluorescence intensities of the individual droplets and solutions near the droplets with background substitution, respectively.
# [2] = tested on: p53 monomer (L344P) mutant; assay: Recruitment (enrichment index) of p53 monomer into designed peptide droplets; parameters: species or system human
# From the text: as §1, §2
# [3] = Cross-β structure detection with amyloid-sensitive probe Picogreen; type: physicochemical; details: Picogreen 25 µM, 25 mM HEPES, 0.5 mM EDTA, pH 7.0
# Description: (§3) Differential interference contrast (DIC) microscopy confirmed that these peptides (0.9–1.8 mM) underwent phase separation in 25 mM HEPES and 0.5 mM EDTA at pH 7.0 (Fig. 2B). To prevent the melting of clusters on the coverslip surface, 2-methacryloyloxyethyl phosphorylcholine (MPC) polymer coating was used[36],[37] (Supplementary Fig. S1). Samples were prepared by sonicating a 2 mM peptide solution or diluting the peptide solution from a 10 mM peptide stock after storage under freezing conditions. Four of the designed peptides, except DPp53N-GSGS-DPp53C2, formed μm-sized spherical clusters. Fluorescence microscopy confirmed the high concentration of peptides labeled with the fluorescent dye Alexa488 in the clusters (Fig. 2B). […] Cross-β structure was also supported by the observation of intrinsic fluorescence upon 400–440 nm excitation[40] (Supplementary Fig. S2). Clusters of aromatic W residues in DPp53N-GSGS-DPp53C2 may lead to the formation of solid aggregates, which is consistent with the results of different systems[21],[34].
# The DIC and fluorescence modes of an inverted microscope (IX-73; Olympus, Tokyo, Japan) equipped with microscopic objectives (60 × and 10 ×) and a camera (DP74) were used, as described previously. We used the solution containing 0.9–1.8 mM designed peptide, 0.1 μM Alexa488-labeled peptide, 25 mM HEPES, and 0.5 mM EDTA at pH 7.0. To detect the cross-β structure, picogreen was added at 25 µM for DPp53N-GSGS-DPp53C2 or 2.5 µM for others instead of the Alexa488-labeled peptide. […] DIC and fluorescence images were obtained at 20 or 22 °C. For intrinsic fluorescence measurements, the excitation and detection wavelengths were 440–440 nm and larger than 460 nm, respectively.
# Fig. S8 Time course of cross-β structure formation of designed peptides in droplets monitored by DIC and fluorescence images. The fluorescence was detected corresponding to the amyloid marker Picogreen at 2.5 µM in a solution containing 0.9 mM designed peptides, 25 mM HEPES, and 0.5 mM EDTA at pH 7.0 and 22 °C.
# [4] = Salt and 1,6-hexanediol dependence of droplet/aggregate formation (scattering at 350 nm, DIC); type: physicochemical; details: 1 mM peptide, 25 mM HEPES, 0.5 mM EDTA, pH 7.0, 22 °C; scattering at 350 nm and DIC
# Description: We detected light scattering corresponding to the designed peptide droplets by measuring OD350 values using an absorbance spectrometer (NanoDrop One; Thermo Fisher).
# (A, B) Effect of additives, 1,6-hexandiol (1,6-HD) and NaCl, on aggregate formation of DPp53N-GSGS-DPp53C2 was monitored as the scattering intensity observed at 350 nm (A) and via DIC images (B). The measurements were conducted in a solution containing 25 mM HEPES, 0.5 mM EDTA, and 1 mM DPp53N-GSGS-DPp53C2 in the presence or absence of additives at pH 7.0 and 22 °C.
# Fig. S7 Designed peptide droplets are sensitive to salt concentration but not to 1,6-hexandiol. (A, B) Salt-concentration dependence of droplet formation of designed peptides monitored as the scattering intensity at 350 nm (A) and via DIC images (B). (C, D) Effect of 1,6-hexandiol on droplet formation of designed peptides monitored as the scattering intensity at 350 nm (C) and via DIC images (D). The measurements were performed in a solution containing 1 mM designed peptides, 25 mM HEPES, and 0.5 mM EDTA at pH 7.0 and 22 °C. In panels (A) and (C), the errors denote the standard errors of at least three measurements.
# [5] = Phase separation of designed peptides by DIC and fluorescence microscopy; type: physicochemical; details: DIC microscopy; 0.9–1.8 mM peptide, 25 mM HEPES, 0.5 mM EDTA, pH 7.0, no salt, MPC polymer-coated coverslip, 20 or 22 °C
# Description: as §3, with “Clusters of aromatic W residues in DPp53N-GSGS-DPp53C2 may lead to the formation of solid aggregates, which is consistent with the results of different systems[21],[34].” left out
# The DIC and fluorescence modes of an inverted microscope (IX-73; Olympus, Tokyo, Japan) equipped with microscopic objectives (60 × and 10 ×) and a camera (DP74) were used, as described previously. […] DIC and fluorescence images were obtained at 20 or 22 °C. For intrinsic fluorescence measurements, the excitation and detection wavelengths were 440–440 nm and larger than 460 nm, respectively.
# [6] = tested on: p53 dimer (L344A) mutant; assay: Recruitment (enrichment index) of p53 dimer into designed peptide droplets; parameters: species or system human; details: (GGGS)3-linker versus GSGS-linker droplets; no salt, pH 7.0
# From the text: as §1
# Recruitment evaluations were performed following the method described in our previous studies[37],[41]. […] Using the ImageJ software, we calculated the EI values of the individual droplets as follows:2 EI=Idroplet/Isolution, where Idroplet and Isolution represent the average fluorescence intensities of the individual droplets and solutions near the droplets with background substitution, respectively.
# [7] = molecular target: 5-FAM-labeled DP_(p53N); assay: fluorescence polarisation; fluorescence anisotropy; non-labeled peptide titrated into 40 nM 5-FAM-labeled DP_(p53N); 25 mM HEPES, 0.5 mM EDTA, 2 mg/mL BSA, 2 mM Trolox, pH 7.0, 25 °C; one-to-one binding model
molecule,measurement,setting,value
RRRVVQRRRRGSGSDDDASQEDDD [DPp53N-GSGS-DPp53C1],Decrease of average EI of p53 tetramer relative to p53 monomer,"[1]; droplet interior regions, surface not included",2.6 fold
same,Enrichment index (EI) of p53 monomer (L344P) mutant in peptide droplets,"[2]; 0.9–1.8 mM designed peptide, 0.1 µM Alexa488-labeled p53, 25 mM HEPES, 0.5 mM EDTA, 1 mM DTT, pH 7.0, 22 °C, ± standard error, SEM",14.7 ± 0.5
RRRVVQRRRRGSGSEDDDWWMWWD [DPp53N-GSGS-DPp53C2],Picogreen fluorescence of clusters,[3],high intensity
same,"Aggregate formation at high concentrations of salt and 1,6-hexanediol",[4],not significantly suppressed
same,Cluster morphology (phase separation),[5],non-spherical clusters that corresponded to solid aggregates
RRRVVQRRRRGGGSGGGSGGGSDDDDDDD [DPp53N-(GGGS)3-D7],Increase of average EI of p53 tetramer compared to the GSGS-linker peptide,[1]; (GGGS)3-linker versus GSGS-linker droplets,3.1 fold
same,Increase of average EI of p53 dimer mutant compared to the GSGS-linker peptide,[6],3.3 fold
same,Decrease of average EI of p53 monomer mutant compared to the GSGS-linker peptide,"[2]; (GGGS)3-linker versus GSGS-linker droplets, no salt, pH 7.0",1.8 fold
GSGSDDDDDDD [GSGS-D7],fold higher affinity than the DP (p53C)1 fragment for the DP (p53N) fragment,[7],2 fold
